According to article PMC6277767, “Broad and Region-Specific Impacts of the Synthetic Cannabinoid CP 55,940 in Adolescent and Adult Female Mouse Brains” (Frontiers in Molecular Neuroscience, 2018):

Test system: CD1 female mouse brain lipidome
Experiment: Brain-region lipid levels (HPLC/MS/MS lipidomics) 2 h after single i.p. 3 mg/kg CP 55,940 vs vehicle
Format: in vivo
Parameters: N-arachidonoyl phenylalanine level, Mean / N-stearoyl tryptophan level, Mean / N-stearoyl proline level, Mean / N-stearoyl leucine level, Mean / N-stearoyl phenylalanine level, Mean / N-stearoyl serine level, Mean / N-stearoyl methionine level, Mean: unit: moles per gram
Protocol: The Bloomington Institutional Animal Care and Use Committee of Indiana University reviewed and approved the animal procedures. Female mice from the CD1 strain were utilized to match our study examining THC’s effects on the brain lipidome ([Leishman et al., 2018]). Mice were given a single i.p. injection of either 3 mg/kg CP or 1:1:18 cremophor:ethanol:saline vehicle (please refer to the section “3 mg/kg CP Is Relevant for Synthetic Cannabinoid Abuse and Has Stronger Effects on the Female Mouse Brain Lipidome During Adolescence” for a justification of dose and use of female mice). Three different age groups were given injections: PND 35 and PND 50 adolescents, and adult mice (PND 113). At least eight mice in each age group received CP and at least eight received vehicle. Matching the THC study time course ([Leishman et al., 2018]), mice were sacrificed via rapid decapitation 2 h after injection. Brains were immediately removed and flash-frozen in liquid nitrogen, and then stored at -80°C until dissections were performed. Brains were dissected on an ice-cold dissection plate into the following regions: STR, HIPP, CER, THAL, CTX, HYP, MID, and STEM. These abbreviations for these brain areas will be used exclusively when discussing the results generated by these specific dissections. Each dissected area was immediately placed in liquid nitrogen and then stored at -80°C until used for lipid extraction.
Tissue extracts were performed as previously described ([Bradshaw et al., 2006]; [Stuart et al., 2013]; [Raboune et al., 2014]; [Leishman et al., 2016a],[b], [2017], [2018]). First, samples were shock frozen in liquid nitrogen, weighed, and transferred to a centrifuge tube. The mass of the largest sample was multiplied by 50 to determine how many milliliters of HPLC-grade methanol (Fisher, Fair Lawn, NJ, United States) to add. Then, samples were spiked with 500 pmol deuterium-labeled NAGly (d8NAGly; Cayman Chemical, Ann Arbor, MI, United States). Samples were placed on ice in darkness for 2 h then individually homogenized and centrifuged at 19,000 × g for 20 min at 20°C. Supernatants were diluted with HPLC water (purified in house) to make a solution of 75% water, 25% supernatant. Lipids were partially purified on C18 solid phase extraction columns (Agilent, Palo Alto, CA, United States). A series of four elutions with 1.5 mL of 60%, 75%, 85%, and 100% methanol were collected ([Stuart et al., 2013]; [Leishman et al., 2016a],[b], [2018]).
As previously described ([Bradshaw et al., 2006]; [Tan et al., 2006]; [Smoum et al., 2010]; [Stuart et al., 2013]; [Tortoriello et al., 2013]; [Raboune et al., 2014]; [Leishman et al., 2016a],[b], [2017], [2018]), samples were analyzed using an Applied Biosystems API 3000 triple quadrupole mass spectrometer with electrospray ionization (Foster City, CA, United States). Using an Agilent XDB-C18 reversed phase analytical column and optimized mobile phase gradients, 20 μL from each elution were chromatographed. Two Shimadzu 10ADvp pumps (Columbia, MD, United States) provided the pressure for gradient elution. Mobile phase A: 20% methanol, 80% water (v/v) and 1 mM ammonium acetate (Sigma, St. Louis, MO, United States). Mobile phase B: 100% methanol, 1 mM ammonium acetate. Every method run began with 0% mobile phase B, reached 100% mobile phase B flowing at 0.2 mL/min, and gradually returned to 0% mobile phase B.
This screening library will be referred to as the lipidome when discussing data from this study. HPLC/MS/MS data were analyzed using Analyst software (Applied Biosystems) ([Bradshaw et al., 2006]; [Tan et al., 2006]; [Stuart et al., 2013]; [Tortoriello et al., 2013]; [Raboune et al., 2014]; [Leishman et al., 2016a],[b], [2017], [2018]). Chromatograms (Supplementary Figure 3) were generated by determining the retention time of analytes from the analytical column with a [M-1] or [M+1] parent peak and a fragmentation peak corresponding to the programmed values. […]

[1] = hippocampus, PND 35 WT female mice, 3mg/kg CP 55,940
[2] = hypothalamus, PND 50, 3mg/kg CP 55,940
[3] = hypothalamus, PND 50 female mice, 3mg/kg CP 55,940

CCCCCCC(C)(C)c1ccc([C@@H]2C[C@H](O)CC[C@H]2CCCO)c(O)c1 [CP 55,940]
N-arachidonoyl tryptophan level, Mean [1]: BDL | N-arachidonoyl tyrosine level, Mean [1]: 7.88E-13 | N-docosahexaenoyl GABA level, Mean [1]: 9.2E-13 | N-docosahexaenoyl alanine level, Mean [1]: 5.16E-12 | N-docosahexaenoyl ethanolamine level, Mean [1]: 3.15E-11 | N-docosahexaenoyl glycine level, Mean [1]: 1.89E-11 | N-docosahexaenoyl leucine level, Mean [1]: 7.64E-13 | N-docosahexaenoyl methionine level, Mean [1]: BDL | N-docosahexaenoyl phenylalanine level, Mean [1]: 1.25E-12 | N-docosahexaenoyl proline level, Mean [1]: BDL | N-docosahexaenoyl serine level, Mean [1]: 2.42E-11 | N-docosahexaenoyl tryptophan level, Mean [1]: BDL | N-docosahexaenoyl tyrosine level, Mean [1]: PISSR | N-docosahexaenoyl valine level, Mean [1]: PISSR | N-linoleoyl GABA level, Mean [1]: 4.99E-13 | N-linoleoyl alanine level, Mean [1]: 2.58E-12 | N-linoleoyl ethanolamine level, Mean [1]: 6.76E-11 | N-linoleoyl glycine level, Mean [1]: 5.29E-12 | N-linoleoyl leucine level, Mean [1]: 3.89E-13 | N-linoleoyl methionine level, Mean [1]: BDL | N-linoleoyl phenylalanine level, Mean [1]: 2.51E-13 | N-linoleoyl proline level, Mean [1]: BDL | N-linoleoyl serine level, Mean [1]: 8.04E-11 | N-linoleoyl tryptophan level, Mean [1]: BDL | N-linoleoyl tyrosine level, Mean [1]: PISSR | N-linoleoyl valine level, Mean [1]: PISSR | N-nervonoyl valine level, Mean [1]: BDL | N-oleoyl GABA level, Mean [1]: 2.89E-12 | N-oleoyl alanine level, Mean [1]: 1.01E-11 | N-oleoyl dopamine level, Mean [1]: BDL | N-oleoyl ethanolamine level, Mean [1]: 1.48E-10 | N-oleoyl glycine level, Mean [1]: 2.1E-11 | N-oleoyl leucine level, Mean [1]: 1.71E-12 | N-oleoyl methionine level, Mean [1]: 8.45E-13 | N-oleoyl phenylalanine level, Mean [1]: 1.23E-12 | N-oleoyl proline level, Mean [1]: PISSR | N-oleoyl serine level, Mean [1]: 3.91E-10 | N-oleoyl tryptophan level, Mean [1]: PISSR | N-oleoyl tyrosine level, Mean [1]: 3.7E-13 | N-oleoyl valine level, Mean [1]: 7.17E-13 | N-palmitoyl GABA level, Mean [1]: 5.66E-12 | N-palmitoyl alanine level, Mean [1]: 1.96E-11 | N-palmitoyl ethanolamine level, Mean [1]: 6.04E-11 | N-palmitoyl glycine level, Mean [1]: 4.65E-11 | N-palmitoyl leucine level, Mean [1]: 4.19E-12 | N-palmitoyl methionine level, Mean [1]: PISSR | N-palmitoyl phenylalanine level, Mean [1]: 2.85E-12 | N-palmitoyl proline level, Mean [1]: 1.75E-12 | N-palmitoyl serine level, Mean [1]: 7.46E-11 | N-palmitoyl tryptophan level, Mean [1]: 4.02E-13 | N-palmitoyl tyrosine level, Mean [1]: 1.11E-12 | N-palmitoyl valine level, Mean [1]: 1.58E-12 | N-stearoyl GABA level, Mean [1]: 5.59E-12 | N-stearoyl alanine level, Mean [1]: 1.75E-11 | N-stearoyl ethanolamine level, Mean [1]: 1.72E-11 | N-stearoyl glycine level, Mean [1]: 2.5E-11 | N-stearoyl leucine level, Mean [1]: 1.77E-12 | N-stearoyl methionine level, Mean [1]: 1.74E-12 | N-stearoyl phenylalanine level, Mean [1]: 2.56E-12 | N-stearoyl serine level, Mean [1]: 3.13E-11 | N-stearoyl tryptophan level, Mean [1]: 1.25E-12 | N-stearoyl tyrosine level, Mean [1]: 1.27E-13 | Oleic acid level, Mean [1]: 2.69E-09 | PGE2 level, Mean [1]: 1.12E-09 | PhosphoLEA level, Mean [1]: 2.75E-11 | THC level, Mean [1]: BDL | 2-arachidonoyl glycerol, Direction (relative to Veh) [2]: ↓ | N-arachidonoyl phenylalanine, Direction (relative to Veh) [2]: ↓ | N-palmitoyl leucine, Direction (relative to Veh) [2]: ↑ | PGF2α Direction (relative to Veh) [2]: ↑ | PGF2α Magnitude (x Veh level) (hypothalamus, PND 50, 3mg/kg CP 55,940, ANOVA p .005): 1.49 x Veh level | N-arachidonoyl phenylalanine, Magnitude (x Veh level) (hypothalamus, PND 50, 3mg/kg CP 55,940, ANOVA p .013): 0.70 x Veh level | N-palmitoyl leucine, Magnitude (x Veh level) (hypothalamus, PND 50, 3mg/kg CP 55,940, ANOVA p .022): 1.34 x Veh level | 2-arachidonoyl glycerol, Magnitude (x Veh level) (hypothalamus, PND 50, 3mg/kg CP 55,940, ANOVA p .033): 0.80 x Veh level | 2-arachidonoyl glycerol level, Mean [3]: 2.57E-10 | 2-linoleoyl glycerol level, Mean [3]: 1E-10 | 2-oleoyl glycerol level, Mean [3]: 1.24E-09 | 2-palmitoyl glycerol level, Mean [3]: 2.63E-09 | 6-ketoPGF1α level, Mean [3]: 1.26E-11 | 11-OH-THC level, Mean [3]: BDL | 11-nor-9-carboxyTHC level, Mean [3]: BDL | Arachidonic acid level, Mean [3]: 1.92E-10 | Cannabidiol level, Mean [3]: BDL | Linoleic acid level, Mean [3]: 1.86E-10 | N- stearoyl valine level, Mean [3]: PISSR | N-arachidonoyl GABA level, Mean [3]: 6.6E-12 | N-arachidonoyl alanine level, Mean [3]: PISSR | N-arachidonoyl dopamine level, Mean [3]: BDL | N-arachidonoyl ethanolamine level, Mean [3]: 2.54E-11 | N-arachidonoyl glycine level, Mean [3]: 4.44E-13 | N-arachidonoyl methionine level, Mean [3]: BDL | N-arachidonoyl phenylalanine level, Mean [3]: 3.4E-13 | N-arachidonoyl proline level, Mean [3]: BDL | N-arachidonoyl serine level, Mean [3]: PISSR | N-arachidonoyl taurine level, Mean [3]: 6.54E-12 | N-arachidonoyl tryptophan level, Mean [3]: BDL | N-arachidonoyl tyrosine level, Mean [3]: BDL | N-docosahexaenoyl GABA level, Mean [3]: PISSR | N-docosahexaenoyl alanine level, Mean [3]: PISSR | N-docosahexaenoyl ethanolamine level, Mean [3]: 3.64E-11 | N-docosahexaenoyl glycine level, Mean [3]: 1.54E-13 | N-docosahexaenoyl leucine level, Mean [3]: PISSR
